According to patent US20250339531A1, “DUX4 POLYPEPTIDES AND NUCLEIC ACIDS FOR TREATING INFLAMMATORY AND AUTOIMMUNE CONDITIONS” (Fred Hutchinson Cancer Center, priority 2021, published 2025):
“Also recorded” adds a separate entry of the source.

What was measured:
[1] = test system: T-cell activation; experiment: Activation of NYESO TCR-engineered T cells by NYESO expressing MEL375 cells (IFNG and IL-2 secretion); type: cell-based, human; settings: pulse-expression 24 hrs prior to T-cell addition
Text: To determine whether the combined short- and long-term mechanisms of MHC protein expression in response to cytokine signaling is sufficient to prevent T-cell activation, NYESO expressing MEL375 cells were used in an assay with T-cells engineered with the TCR (T Cell Receptor) for the NYESO antigen and measured T-cell activation by secretion of IFNG and IL-2.

[2] = test system: polysome association of mRNAs; experiment: Polysome profiling with RNA-seq; type: cell-based, human; settings: DUX4 pulse+IFNG versus IFNG
Procedure: Polysome profiling was performed using three 70% confluent 15 cm plates of MB135iDUX4 myoblasts per treatment condition (n=3). MB135iDUX4 myoblasts were pulsed with or without doxycycline for 4 hours, incubated for 48 hours, supplemented with 50 ng/mL IFNG for 16 hours, and harvested at a terminal time point of 68 hours. To harvest, culture medium was supplemented with 100 μg/mL cycloheximide (CHX; Sigma) and cells were incubated at 37° C. for 10 minutes. Media was aspirated and each 15 cm plate of adherent cells was rinsed with 25 mL ice-cold PBS supplemented with 100 μg/mL cycloheximide, lifted with 0.25% Trypsin-EDTA supplemented with CHX, and resuspended in growth media supplemented with CHX. Cells were pelleted at 300 RCF and washed twice with ice-cold PBS supplemented with CHX. Cell pellets were flash frozen in liquid nitrogen and stored at −80° C. Cells were lysed with Polysome Lysis Buffer (10 mM Tris pH 8, 140 mM NaCl, 7.5 mM MgCl2, 0.25% NP-40, 0.1% Triton X-100, 150 μg/mL CHX, 20 mM DTT, 640U/mL SUPERase-In RNase Inhibitor) and clarified before quantification with the Bio-Rad Protein Assay. 1.5 mg of clarified lysate was loaded onto a 10-50% sucrose gradient prepared in DEPC-treated water with 25 mM Tris pH 7.4, 25 mM NaCl, 5 mM MgCl2, 100 μg/mL heparin, and 2 mM DTT. Gradients were fractionated using a Biocomp Piston Gradient Fractionator. Samples were resuspended in Trizol and Drosophila S2 cells were added as an internal spike-in control. RNA was extracted using the Direct-zol RNA Miniprep Kit (Zymo Research). Relative mRNA abundance for each sample was normalized to Drosophila spike-in to account for differences in RNA extraction efficiency (Taruttis et al., 2017).
Total RNA was isolated using the NucleoSpin RNA kit (Machery-Nagel) or Direct-zol RNA Mini-Prep Kit (Zymo Research) according to manufacturer's instructions. RNA-seq libraries were prepared using the Illumina TruSeq RNA Sample Prep v2 Kit and sequenced using 50 bp paired-end sequencing on the Illumina NextSeq platform by the Fred Hutchinson Cancer Center Genomics Core.

[3] = test system: in vitro translated STAT1; experiment: In vitro translation and anti-FLAG immunoprecipitation; type: binding; settings: rabbit reticulocyte lysate proteins, ± JAK1 kinase; listed as DUX4-CTD
Procedure: In vitro translated proteins were prepared using the TnT Quick Coupled Transcription Translation System (Promega, L2080) for the SP6 promoter on the pCS2-3×MYC-STAT1, pCS2-3×MYC-STAT1-S727E, pCS2-3×FLAG-DUX4aa154-424, and pCS2-3×FLAG-DUXB plasmids. To phosphorylate the 3×MYC-STAT1 and 3×MYC-STAT1-S727E proteins at Y701, 20 μL of the TnT reaction was mixed with 8 μL of 5× Kinase Buffer A (ThermoFisher, Cat #PV3189), 4 uL 10 mM ATP (ThermoFisher, Cat #PV3227), 0.4 ug recombinant JAK1 kinase (ThermoFisher, Cat #PV4774), and then nuclease-free ddH2O to a final volume of 40 μL and incubated for 1 hour at 30° C. The same procedure was used for treatment of 3×FLAG-DUX4-CTD with JAK1 kinase. For IPs, the in vitro translated proteins were mixed and incubated for 15 minutes in a 37° C. water bath. 0.3 mL of ice-cold in vitro IP buffer [20 mM Tris-HCl pH 7.5, 137 mM NaCl, 1 mM EDTA, 0.1% Tween20, 5% glycerol, adjusted to pH 7.4] was added to each sample and then 50 μL of Dynabeads Protein G bound to mouse IgG1 anti-FLAG [M2] (F3165) and incubated for 3 hours at 4° C. with gentle rotation. After immunoprecipitation of FLAG-tagged constructs, each sample was washed 3 times with 1 mL of ice-cold in vitro IP buffer in a 4° C. room. […]

Substance: DUX4: human DUX4 protein SEQ ID NO:3 expressed from doxycycline inducible codon altered transgene SEQ ID NO:2
- T-cell activation (IFNG and IL-2 secretion) [1]: completely blocks the T-cell activation by the NYESO expressing MEL375 cells
- mRNAs reduced in the high polysome fraction ([2]; log 2FC<−1, p-adj<0.01): 7765 genes
- polysome-bound mRNAs significantly upregulated ([2]; log 2FC>1, p-adj<0.01): 256
- genes with decreased polysome association (high/sub ratio) ([2]; |log 2FC>1|, p-adj<0.01): 5800 genes
- genes with increased polysome association (high/sub ratio) ([2]; |log 2FC>1|, p-adj<0.01): 323 genes
- polysome association of specific mRNAs ([2]; high-to-sub polysome ratio): TOP mRNAs remain associated with polysomes; also recorded: HLA-A, HLA-B, and HLA-C mRNAs showed reduced polysome association; also recorded: PSMB8, PSMB9, and PSMB10 mRNAs remained associated with polysomes

Substance: longCTD: 3×FLAG tag and nls in frame with carboxyterminal 271 amino acids of DUX4 (aa154-424), SEQ ID NOS: 8-9
- interaction with in vitro translated STAT1 [3]: did not interact with in vitro translated STAT1; also recorded: does not co-immunoprecipitate with in vitro translated/phosphorylated STAT1
